# Experimental data taken from patent US20210361600A1, “METHODS FOR INDUCING CHONDROGENESIS” (THE SCRIPPS RESEARCH INSTITUTE, priority 2017, published 2021).
# Values joined by “and” are separate entries in the source; they are usually repeats but may differ in a detail not shown here. Identical values can stand only once. “Also recorded” adds a separate entry of the source. Like-named read-outs stand apart in the source and are kept apart here.
# What was measured:
# in vivo [1] = settings: male, beagle, dog, 70 μg/knee/week
# in vivo [2] = experiment: in vivo; set-up: species or system Crl:CD(SD) rat; settings: rat; for half-life: t1/2
# [3] = dog, in vivo
# [4] = system: Canine Model of Osteoarthritis; experiment: Efficacy of compound A in a canine model of osteoarthritis; format: in vivo, Beagle dogs
# Protocol: The clear solution was then filtered in a 0.45 μm filter prior to intraarticular dose. Dosing solution was prepared fresh on the day of dosing.
# Twelve to fifteen-month-old female naïve Beagle dogs were obtained from Marshall BioResouces (North Rose, N.Y.) with a weight range of 5.4 to 9.3 kilograms.
# The goal was to sort and ensure that behavioral characteristics were shared among all groups, so that the activity level and use of the joints while not in regimented exercise would be uniform between groups. In addition to sorting by temperament, animals were also sorted by body weights, with equal distribution between study groups. Animals were acclimated to an exercise regimen of 1 hour of walking/running/playing prior to study start.
# Animals were food deprived prior to surgery, anesthetized using propofol (6 mg/kg, IV), and maintained on isoflurane (3-4%) in oxygen (2 L/min) for the duration of the procedure (10-15 minutes). The right rear knee was shaved and aseptically prepared. A medial skin incision was made to expose the collateral ligament. A portion of the medial meniscus was cut (a wedge roughly half the width of the medial meniscus was removed). The joint capsule and subcutis were closed with sutures, and skin closed with wound clips. Sham animals were treated in the same manner except for the medial meniscus partial transection. All animals were allowed to recover for 10-11 days prior to dosing. Three days after surgery, all animals began an exercise regimen of one hour of continuous exercise (walking/running/playing), to ensure that the animals were using the surgerized leg and to allow for a more uniform development of lesions across a group of differently tempered dogs.
# (§1) All animals were exercised 5 days a week for an hour for the duration of the study. At study day 10/11, animals began receiving weekly injections of either compound or vehicle into the surgerized joint. Blood samples were also taken pre-dose for all animals for compound determination. Animals received doses at day 10, 17, 24, 31, 38, and 45 post surgery. All intraarticular doses were standardized to 0.5 mL injections into the joint capsule via injection through the patellar ligament.
# On day 52, animals received a terminal blood sample and were euthanized. Plasma samples were used for biomarker determination. Urine and synovial fluid was collected at necropsy, and the knees were harvested for histology and pathology analysis.
# Osteoarthritic lesions were scored based on lesion size, depth, severity and changes in subchondral bone and osteophyte formation. Both the femur and the tibia on either side of the meniscal cut were examined. Statistical analysis used Student's two-tailed test or Mann-Whitney U Test (non-parametric).
# For terminal plasma samples, biomarker ELISAs were run to quantify levels of PIINP. The kit procedures were followed as per manufacturer's instructions. Data were analyzed with a Student's t-test.
# CBFβ = CBFβ nuclear localization in hMSCs (Western blotting); format: cell-based, human; settings: hMSCs, 1, 10 and 100 nM, 1 hour
# Protocol: Primary human MSCs were obtained from Cell Applications. The hMSCs were grown in Mesenchymal Stem Cell expansion media and used between passage 2 and 8 for all experiments. Nuclear cell lysate fractionation and western blotting
# The cells were scraped off the dishes mechanically, and pipetted gently to break the cell debris. The cell lysate was centrifuged at 2000 rpm at 4° C. for 5 min and the supernatant was saved as the cytosolic fraction. The pellet was washed with washing buffer (20 mM HEPES, pH 7.9, 20% glycerol, 0.2 mM EDTA, 1 mM DTT and protease inhibitor cocktail) once and centrifuged at 2000 rpm for 5 min. The supernatant was discarded, the pellets were suspended in nuclear extraction buffer (2 mM HEPES, pH7.9, 400 mM NaCl, 20% glycerol, 0.2 mM EDTA, 1 mM DTT and protease inhibitor cocktail) and then incubated on ice for 45 min. The mixture was centrifuged at 13,000 rpm for 15 min at 4° C., and the supernatant was saved as nuclear fraction.
# Proteins were resolved using SDS-PAGE gel electrophoresis, transferred to a PVDF membrane using semi-dry blotting cell. The membrane was blocked in blocking buffer (LiCor) for 1 hr at room temperature, followed by incubation with primary antibody in blocking buffer at 4° C. overnight. […]
# [5] = Intra-articular acute toxicity study in the Beagle dog (toxicokinetics); settings: for Tlast / AUC(0-t) / Cmax: male dogs, plasma
# [6] = Intra-articular single dose pharmacokinetics study in rat; format: in vivo; settings: for concentration in the knee: 1.05 μg/knee
# [7] = Intra-articular acute toxicity study in Crl:CD(SD) rat (toxicokinetics); settings: for Tlast: male rats, median
# [8] = Final dose PK in the canine osteoarthritis study; format: in vivo, Beagle dogs
# Protocol: Acetonitrile, water (Optima, LC/MS Grade) and formic acid, 99+% (Optima, LC/MS Grade) were purchased from Fisher Scientific. […] Chromatography HPLC column, Luna, 5 um C18 (2), 50×2.0 mm and its guard security cartridge and holder were purchased from Phenomenex. HPLC (1100 Series) was purchased from Agilent. The Mass Spectrometer system, API 3000 was purchased from SCIEX. Separation was performed on a reversed phase C18 column with a gradient elution using mobile phases of 0.1% formic acid in water (A) and 0.1% formic acid in acetonitrile (B) with flow rate at 0.6 mL/min.
# Supernatant was then diluted with 0.1% formic acid in water solvent and injected onto LC-MS-MS system.
# as §1
# Female Beagles underwent medial meniscal tear surgery to induce osteoarthritis.
# [9] = female, Crl:CD(SD), iv, 0.25 mg/kg
# [10] = female, Crl:CD(SD), iv, 0.75 mg/kg
# [11] = female, Crl:CD(SD), iv, 2.5 mg/kg
# [12] = male, Crl:CD(SD), iv, 0.25 mg/kg
# [13] = male, Crl:CD(SD), iv, 0.75 mg/kg
# [14] = male, Crl:CD(SD), iv, 2.5 mg/kg
# [15] = 0.035 mg/knee IA weekly for 6 weeks, vs vehicle
# [16] = dose increment of 2.9 fold (from 35 to 100 ng)
# [17] = single IA 35 μg/knee, individual animals 41M, 42M
# [18] = single IA 100 μg/knee, individual animals 43M, 44M
# [19] = single IA 200 μg/knee, individual animals 45M, 46M
# [20] = rat, plasma, 1.05 ug, single IA dose 1.05 μg/knee
# [21] = dose increment of 5.7 fold (from 2.1 to 12 μg)
# [22] = male, Crl:CD(SD), rat, plasma, 12 ug
# [23] = female Beagles, 35 μg IA weekly, after 6th dose, plasma, individual animals 1-6
smiles,measurement,setting,value
"COCCc1ccc(NC(=O)c2ccccc2NS(C)(=O)=O)cc1 [Compound A, N-(4-(2-methoxyethyl)phenyl)-2-(methylsulfonamido)benzamide]",AUC(0-t),in vivo [1],13.8 ng·h/mL
same,time up to which quantifiable in the plasma of all animals,"in vivo [2]; both, Crl:CD(SD), iv",at least 4 hours
same,AUC(0-t),in vivo [2]; [9],764 ng·h/mL
same,Cmax,in vivo [2]; [9],1380 ng/mL
same,t1/2,in vivo [2]; [9],32.4 min
same,AUC(0-t),"in vivo [2]; female, Crl:CD(SD), iv, 0.25 mg/kg, AUC0-t",871 ng·h/mL
same,Cmax,"in vivo [2]; female, Crl:CD(SD), iv, 0.25 mg/kg, Cmax",1230 ng/mL
same,half-life,in vivo [2]; [9],34.8 min
same,AUC(0-t),in vivo [2]; [10],1920 ng·h/mL
same,Cmax,in vivo [2]; [10],4800 ng/mL
same,t1/2,in vivo [2]; [10],28.8 min
same,AUC(0-t),"in vivo [2]; female, Crl:CD(SD), iv, 0.75 mg/kg, AUC0-t",2250 ng·h/mL
same,Cmax,"in vivo [2]; female, Crl:CD(SD), iv, 0.75 mg/kg, Cmax",3490 ng/mL
same,half-life,in vivo [2]; [10],35.4 min
same,t1/2,in vivo [2]; [11],43.8 min
same,half-life,in vivo [2]; [11],37.8 min
same,AUC(0-t),in vivo [2]; [12],633 ng·h/mL
same,Cmax,in vivo [2]; [12],2060 ng/mL
same,t1/2,in vivo [2]; [12],25.2 min
same,AUC(0-t),"in vivo [2]; male, Crl:CD(SD), iv, 0.25 mg/kg, AUC0-t",657 ng·h/mL
same,Cmax,"in vivo [2]; male, Crl:CD(SD), iv, 0.25 mg/kg, Cmax",1940 ng/mL
same,half-life,in vivo [2]; [12],23.4 min
same,AUC(0-t),in vivo [2]; [13],2160 ng·h/mL
same,t1/2,in vivo [2]; [13],25.8 min
same,AUC(0-t),"in vivo [2]; male, Crl:CD(SD), iv, 0.75 mg/kg, AUC0-t",3120 ng·h/mL
same,half-life,in vivo [2]; [13],37.8 min
same,t1/2,in vivo [2]; [14],42.6 min
same,half-life,in vivo [2]; [14],38.4 min
same,gender differences in mean Cmax and mean AUC0-t,in vivo [2],no significant gender differences
same,differences in systemic exposure following single and repeated IV administration,in vivo [2]; iv,no significant
same,time up to which quantifiable in the plasma of all animals,"[3]; both, beagle, iv, 1.25 mg/kg",at least 12 hours
same,gender differences in systemic exposure (Cmax and AUC0-t),[3],no significant gender differences
same,differences in systemic exposure following single and repeat weekly IV administration,[3]; iv,no significant differences
same,Cmax,"[3]; female, Beagle, iv, 0.125 mg/kg",209 ng/mL
same,Cmax,"[3]; female, Beagle, iv, 0.6 mg/kg",1190 ng/mL
same,AUC(0-t),"[3]; female, Beagle, iv, 1.25 mg/kg",2300 ng·h/mL
same,Cmax,"[3]; female, Beagle, iv, 1.25 mg/kg",2480 ng/mL
same,AUC(0-t),"[3]; male, beagle, iv, 0.125 mg/kg",211 ng·h/mL
same,Cmax,"[3]; male, beagle, iv, 0.125 mg/kg",197 ng/mL
same,AUC(0-t),"[3]; male, beagle, iv, 0.6 mg/kg",1400 ng·h/mL
same,Cmax,"[3]; male, beagle, iv, 0.6 mg/kg",1140 ng/mL
same,AUC(0-t),"[3]; male, beagle, iv, 1.25 mg/kg",2510 ng·h/mL
same,Cmax,"[3]; male, beagle, iv, 1.25 mg/kg",2150 ng/mL
same,degree of substantial cartilage degeneration in the femur,[4]; [15],significantly improved; also recorded: significant reduction
same,level of bone sclerosis,[4]; [15],reduced; also recorded: improved
same,"width of total cartilage degeneration (all severities), femur",[4]; [15],no effect
same,tibial cartilage damage,[4]; effect not statistically significant,less severe
same,circulating PIINP in plasma (ELISA),"[4]; terminal samples 1 week post final dose, vs vehicle",significantly elevated
same,CBFβ levels in the nuclear fraction,CBFβ,increase
same,concentrations in synovial fluid samples,"[5]; at study termination, below the LLQ",< 0.5 ng/mL
same,increase in mean AUC0-t,[5]; [16],0.7 fold
same,increase in mean Cmax,[5]; [16],0.7 fold
same,increase in mean AUC0-t,[5]; dose increment of 5.7 fold,approximately 1.5 fold
same,increase in mean Cmax,[5]; dose increment of 5.7 fold,approximately 1.5 fold
same,Tlast,"[5]; single IA 35 μg/knee, Mean",4.00 h
same,AUC(0-t),[5]; [17],5.41 ng·h/mL
same,Cmax,[5]; [17],2.21 ng/mL
same,Tlast,[5]; [17],4.00 h
same,Tlast,"[5]; single IA 100 μg/knee, Mean",4.00 h
same,AUC(0-t),[5]; [18],11.7 ng·h/mL
same,Cmax,[5]; [18],4.75 ng/mL
same,Tlast,[5]; [18],4.00 h
same,Tlast,"[5]; single IA 200 μg/knee, Mean",4.00 h
same,AUC(0-t),[5]; [19],9.60 ng·h/mL
same,Cmax,[5]; [19],3.21 ng/mL
same,Tlast,[5]; [19],4.00 h
same,AUC(0-t),"[5]; male, beagle, dog, 35 μg/knee, AUC0-t, single IA 35 μg/knee, Mean",5.31 ng·h/mL
same,AUC(0-t),"[5]; male, beagle, dog, 35 μg/knee, AUC0-t, single IA 35 μg/knee, individual animals 41M, 42M",5.21 ng·h/mL
same,Cmax,"[5]; male, beagle, dog, 35 μg/knee, Cmax, single IA 35 μg/knee, Mean",2.17 ng/mL
same,Cmax,"[5]; male, beagle, dog, 35 μg/knee, Cmax, single IA 35 μg/knee, individual animals 41M, 42M",2.14 ng/mL
same,AUC(0-t),"[5]; male, beagle, dog, 100 μg/knee, AUC0-t, single IA 100 μg/knee, Mean",12.3 ng·h/mL
same,AUC(0-t),"[5]; male, beagle, dog, 100 μg/knee, AUC0-t, single IA 100 μg/knee, individual animals 43M, 44M",13 ng·h/mL
same,Cmax,"[5]; male, beagle, dog, 100 μg/knee, Cmax, single IA 100 μg/knee, Mean",4.59 ng/mL
same,Cmax,"[5]; male, beagle, dog, 100 μg/knee, Cmax, single IA 100 μg/knee, individual animals 43M, 44M",4.43 ng/mL
same,AUC(0-t),"[5]; male, beagle, dog, 200 μg/knee, AUC0-t, single IA 200 μg/knee, Mean",8.89 ng·h/mL
same,AUC(0-t),"[5]; male, beagle, dog, 200 μg/knee, AUC0-t, single IA 200 μg/knee, individual animals 45M, 46M",8.18 ng·h/mL
same,Cmax,"[5]; male, beagle, dog, 200 μg/knee, Cmax, single IA 200 μg/knee, Mean",3.01 ng/mL
same,Cmax,"[5]; male, beagle, dog, 200 μg/knee, Cmax, single IA 200 μg/knee, individual animals 45M, 46M",2.81 ng/mL
same,concentration in the knee,[6]; 120 minutes after single IA injection,LLQ
same,concentration in the knee,[6]; immediately after single IA injection,925.5 ng/mL
same,AUC(0-inf),[6]; [20],33.9 ng·h/mL
same,Cmax,[6]; [20],53.3 ng/mL
same,half-life,"[6]; rat, plasma, 1.05 ug, single IA dose 1.05 μg/knee, read-out: plasma t1/2 (converted)",28.9 min
same,increase in mean AUC0-t,[7]; [21],2 fold
same,increase in mean Cmax,[7]; [21],2 fold
same,Tlast,"[7]; single IA dose 2.1 μg/knee, plasma",2.00 h
same,Tlast,"[7]; single IA dose 12 μg/knee, plasma",2.00 h
same,AUC(0-t),"[7]; male, Crl:CD(SD), rat, plasma, 2.1 ug",12.1 ng·h/mL
same,AUC(0-t),[7]; [22],23.9 ng·h/mL
same,Cmax,[7]; [22],27.8 ng/mL
same,plasma exposure after the final dose,[8]; 1 hour after IA administration,undetectable
same,Cmax,"[8]; female Beagles, 35 μg (0.035 mg/knee) IA weekly, after 6th dose, plasma, individual animals 1-6",2.22 ng/mL and 2.64 ng/mL and 1.87 ng/mL and 2.26 ng/mL and 1.08 ng/mL and 1.54 ng/mL
same,Tlast,"[8]; female Beagles, 35 μg IA weekly, after 6th dose, plasma, Mean",2.3 h
same,AUC 0-τ,[8]; [23],2.28 ng·h/mL and 3.14 ng·h/mL and 2.12 ng·h/mL and 3.58 ng·h/mL and 1.15 ng·h/mL and 1.87 ng·h/mL
same,Tlast,[8]; [23],2.0 h (5×) and 4.0 h
same,AUC,"[8]; female, beagle, dog, plasma, 0.035 mg/knee, female Beagles, 35 μg IA weekly, after 6th dose, plasma, Mean, read-out: AUC 0-τ",2.36 ng·h/mL
same,Cmax,"[8]; female, beagle, dog, plasma, 0.035 mg/knee, female Beagles, 35 μg IA weekly, after 6th dose, plasma, Mean, read-out: Cmax",1.94 ng/mL
